This note sets out measurements from ChEMBL document CHEMBL1144839, “Cytotoxic bastadin 24 from the Australian sponge Ianthella quadrangulata” (J Nat Prod, 2008).

Each structure is given as a SMILES string.

The assay has as its system HUVEC. Description: Antiangiogenic activity in HUVEC cells assessed as inhibition of hEGF-induced tubular formation at 1 ug/mL after 24 hrs relative to control. In kind it is functional, Homo sapiens. Set-up: scale not given: the % may be the effect or the level left.

Consider `O=C1N/C=C/c2ccc(c(Br)c2)Oc2cc(cc(Br)c2O)CCNC(=O)/C(=N/O)Cc2ccc(c(Br)c2)Oc2cc(cc(Br)c2O)C/C1=N\O` [BASTADIN 7], for which the Activity is 37.3%.
